Data reported in ChEMBL document CHEMBL1201862, “PubChem BioAssay data set” (2004).
Active and inactive are the calls of the source.

Legend:
[1] = test system: INS1; test: beta cell apoptosis inhibitors, cytokine rescue, dose response, luminescence, retest (AID 449756); type: functional, cell-based; details: Rattus norvegicus;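 also: cell death triggered by IL-1 beta plus TNF-alpha plus IFN-gamma mixture; protective hits raise ATP signal compared with cytokine alone wells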
[2] = target: Galanin receptor type 2 (Homo sapiens, UniProt O43603); test: Dose Response cell-based high-throughput screening assay to identify antagonists of galanin receptor 2 (GALR2). [Related pubchem assays: 828, 866 ]; type: functional
[3] = target: Ion channel NompC (Danio rerio, UniProt Q7T1G6); test: Dose response cell-based high-throughput screening assay for agonists of the transient receptor potential channel N1 (TRPN1). [Related pubchem assays (depositor defined):AID1424, AID1448]; type: functional
[4] = target: T1, Mucolipin-3 (Homo sapiens, UniProt Q8TDD5); test: Fluorescence counterscreen assay for […] agonists: dose response cell-based high-throughput screening assay to identify agonists of the transient receptor potential channel ML3 (TRPML3). [Related pubchem assays: 1424, 1448 ]; type: functional
T1 sequence (Q8TDD5 whole entry): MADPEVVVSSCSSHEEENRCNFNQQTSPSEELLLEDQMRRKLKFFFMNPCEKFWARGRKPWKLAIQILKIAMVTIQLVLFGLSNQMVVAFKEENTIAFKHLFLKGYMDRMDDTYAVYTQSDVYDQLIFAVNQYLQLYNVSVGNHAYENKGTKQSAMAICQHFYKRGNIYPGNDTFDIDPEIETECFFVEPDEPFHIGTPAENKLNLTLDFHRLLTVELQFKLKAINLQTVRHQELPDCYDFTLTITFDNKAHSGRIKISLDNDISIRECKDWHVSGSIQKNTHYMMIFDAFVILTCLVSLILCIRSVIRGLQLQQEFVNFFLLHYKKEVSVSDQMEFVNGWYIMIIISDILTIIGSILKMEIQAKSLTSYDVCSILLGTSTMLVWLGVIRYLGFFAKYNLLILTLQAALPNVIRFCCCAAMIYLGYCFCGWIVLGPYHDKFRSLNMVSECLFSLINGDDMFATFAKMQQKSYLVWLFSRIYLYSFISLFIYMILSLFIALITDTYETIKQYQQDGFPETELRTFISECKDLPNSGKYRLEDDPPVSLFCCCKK

[5] = cells; type: functional, cell-based; details: HEK-CNG
[6] = target: T2, Galanin receptor type 3 (Homo sapiens, UniProt O60755); test: Fluorescence-based cell-based primary high throughput dose response assay to identify antagonists of the Galanin Receptor 3 (GalR3).; type: functional
T2 sequence (O60755 whole entry): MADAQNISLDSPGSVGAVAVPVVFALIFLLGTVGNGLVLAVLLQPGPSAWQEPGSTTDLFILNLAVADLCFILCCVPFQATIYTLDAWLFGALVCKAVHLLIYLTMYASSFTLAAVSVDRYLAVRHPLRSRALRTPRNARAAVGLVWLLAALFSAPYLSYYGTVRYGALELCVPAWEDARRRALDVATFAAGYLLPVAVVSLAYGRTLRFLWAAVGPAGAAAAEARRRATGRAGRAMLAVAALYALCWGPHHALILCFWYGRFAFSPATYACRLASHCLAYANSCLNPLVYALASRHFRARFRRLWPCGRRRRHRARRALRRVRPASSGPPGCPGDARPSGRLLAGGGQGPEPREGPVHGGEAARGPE

[7] = test system: CHO; test: cytotoxicity in TLR9-MyD88 CHO cells, dose response, cytotoxicity control for TLR9-MyD88 binding inhibitor project, cell-based, luminescence (AID 588339); type: functional, hamster; details: Cricetulus griseus;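 also: CHO cells stably coexpressing TLR9 and MyD88 fusions from primary screen; compound exposure lasted 48 hours before viability readout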
[8] = target: T3, Beta Lactamase (Pseudomonas aeruginosa, UniProt Q932Y6); test: beta-lactamase reporter inhibitor potency, dose response, artefact control for TLR9-MyD88 binding inhibitor project, BLA reporter cells, FRET fluorescence (AID 588341); type: cell-based;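 also: cell based assay in CHO-K1 cells stably expressing beta-lactamase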
[9] = target: T4, Microphthalmia-associated transcription factor (Homo sapiens, UniProt O75030); test: TRPM1 promoter luciferase signal decrease, dose response, MITF inhibitor project, cell-based, SK-MEL-5, cherry-picked, set 3 (AID 493073); type: functional
T4 sequence (O75030 whole entry): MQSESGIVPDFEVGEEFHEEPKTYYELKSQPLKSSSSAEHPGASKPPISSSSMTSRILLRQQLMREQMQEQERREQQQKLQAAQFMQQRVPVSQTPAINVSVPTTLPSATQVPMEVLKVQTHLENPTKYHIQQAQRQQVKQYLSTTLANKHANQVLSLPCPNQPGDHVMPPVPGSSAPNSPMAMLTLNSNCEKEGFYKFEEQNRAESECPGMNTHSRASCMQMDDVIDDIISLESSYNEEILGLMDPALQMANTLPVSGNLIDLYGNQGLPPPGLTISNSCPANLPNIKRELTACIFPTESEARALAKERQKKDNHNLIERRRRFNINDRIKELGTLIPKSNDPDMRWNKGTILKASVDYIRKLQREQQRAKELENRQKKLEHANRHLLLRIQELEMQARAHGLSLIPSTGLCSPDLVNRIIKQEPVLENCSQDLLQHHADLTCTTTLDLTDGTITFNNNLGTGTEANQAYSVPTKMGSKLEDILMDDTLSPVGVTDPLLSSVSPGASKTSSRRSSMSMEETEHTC

[10] = control 3'UTR Renilla luciferase suppression, dose response, counter-screen for Shn3 inhibitor project, cell-based, Clone20-Shn3RL, cherry-picked (AID 624133); type: functional
[11] = HepG2 cell cytotoxicity, dose response, cytotoxicity control for Shn3 inhibitor project, CellTiter-Glo, cherry-picked (AID 624134); type: functional, cell-based
[12] = Shn3 3'UTR reporter inhibitors, dose response, cell-based, Clone20 osteoblasts, firefly luciferase, cherry-picked (AID 624132); type: functional;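 also: firefly luciferase luminescence from reporter carrying the Shn3 3'UTR in osteoblasts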
[13] = target: T3, Beta Lactamase; test: beta-lactamase reporter inhibitor potency, dose response, artefact control for NOD2-RIPK2 interaction inhibitor project, BLA reporter cells, FRET fluorescence (AID 651552); type: functional, cell-based
[14] = target: DNA damage-inducible transcript 3 protein (Mus musculus, UniProt P35639); type: functional, Cricetulus griseus
[15] = Fluorescence-based cell-based high throughput dose response assay for inhibitors of the interaction of nucleotide-binding oligomerization domain containing 2 (NOD2) and the receptor-interacting serine-threonine kinase 2 (RIPK2).; type: functional; details: Homo sapiens

T3 sequence (Q932Y6 whole entry): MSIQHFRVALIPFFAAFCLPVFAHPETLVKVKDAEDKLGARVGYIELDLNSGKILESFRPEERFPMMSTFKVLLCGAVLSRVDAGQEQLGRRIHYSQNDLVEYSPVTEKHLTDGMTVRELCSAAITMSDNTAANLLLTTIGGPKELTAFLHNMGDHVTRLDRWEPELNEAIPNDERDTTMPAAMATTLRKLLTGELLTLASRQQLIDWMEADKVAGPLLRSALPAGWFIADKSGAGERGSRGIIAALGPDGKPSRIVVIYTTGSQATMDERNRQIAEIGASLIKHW
Sequence of DNA damage-inducible transcript 3 protein (P35639 whole entry, the tested form may be a part): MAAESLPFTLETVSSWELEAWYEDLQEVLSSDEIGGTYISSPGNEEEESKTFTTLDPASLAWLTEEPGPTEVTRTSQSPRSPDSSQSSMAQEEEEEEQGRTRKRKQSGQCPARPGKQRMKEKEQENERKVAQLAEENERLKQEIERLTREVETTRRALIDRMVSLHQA
Sequence of Ion channel NompC (Q7T1G6 whole entry): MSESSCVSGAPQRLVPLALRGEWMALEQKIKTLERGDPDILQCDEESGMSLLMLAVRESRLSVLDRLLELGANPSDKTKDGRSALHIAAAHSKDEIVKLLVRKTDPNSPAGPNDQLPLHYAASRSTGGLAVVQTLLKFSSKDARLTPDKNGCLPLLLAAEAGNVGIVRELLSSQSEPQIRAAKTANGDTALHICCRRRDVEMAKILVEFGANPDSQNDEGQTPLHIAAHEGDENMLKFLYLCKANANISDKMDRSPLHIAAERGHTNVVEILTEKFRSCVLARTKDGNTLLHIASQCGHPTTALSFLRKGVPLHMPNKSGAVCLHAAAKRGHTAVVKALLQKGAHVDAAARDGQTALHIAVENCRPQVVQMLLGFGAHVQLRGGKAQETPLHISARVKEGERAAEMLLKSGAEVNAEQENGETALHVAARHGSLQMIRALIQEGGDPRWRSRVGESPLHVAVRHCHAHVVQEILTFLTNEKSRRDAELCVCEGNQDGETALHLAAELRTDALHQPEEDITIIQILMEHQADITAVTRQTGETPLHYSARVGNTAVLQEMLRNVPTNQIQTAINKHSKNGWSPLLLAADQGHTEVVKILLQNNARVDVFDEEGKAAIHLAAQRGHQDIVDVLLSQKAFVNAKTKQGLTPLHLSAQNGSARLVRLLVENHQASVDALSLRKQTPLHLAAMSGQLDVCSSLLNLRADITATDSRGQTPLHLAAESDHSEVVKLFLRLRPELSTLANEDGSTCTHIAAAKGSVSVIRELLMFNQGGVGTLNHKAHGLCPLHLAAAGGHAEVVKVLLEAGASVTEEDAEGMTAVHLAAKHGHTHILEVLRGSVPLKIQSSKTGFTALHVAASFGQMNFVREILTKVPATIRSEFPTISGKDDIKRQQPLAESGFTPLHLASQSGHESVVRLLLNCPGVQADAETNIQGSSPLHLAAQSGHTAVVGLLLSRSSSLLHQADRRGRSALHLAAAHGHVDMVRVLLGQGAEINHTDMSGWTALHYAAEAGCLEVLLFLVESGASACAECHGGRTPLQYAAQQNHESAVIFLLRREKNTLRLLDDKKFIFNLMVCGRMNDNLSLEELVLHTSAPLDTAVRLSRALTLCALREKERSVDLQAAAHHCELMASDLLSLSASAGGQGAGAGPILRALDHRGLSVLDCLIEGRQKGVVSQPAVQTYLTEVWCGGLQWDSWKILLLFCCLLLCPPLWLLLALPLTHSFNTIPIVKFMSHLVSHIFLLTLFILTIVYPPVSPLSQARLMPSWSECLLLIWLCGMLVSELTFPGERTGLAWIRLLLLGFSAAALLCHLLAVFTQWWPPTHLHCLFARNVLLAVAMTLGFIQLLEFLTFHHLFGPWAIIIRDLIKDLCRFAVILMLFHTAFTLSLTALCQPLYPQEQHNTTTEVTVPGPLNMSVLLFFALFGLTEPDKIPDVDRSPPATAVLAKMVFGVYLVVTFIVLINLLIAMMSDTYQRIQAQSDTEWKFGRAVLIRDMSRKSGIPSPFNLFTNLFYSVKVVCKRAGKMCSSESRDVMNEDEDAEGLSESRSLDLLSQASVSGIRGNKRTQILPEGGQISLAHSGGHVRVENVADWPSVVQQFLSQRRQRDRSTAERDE
Sequence of Galanin receptor type 2 (O43603 whole entry): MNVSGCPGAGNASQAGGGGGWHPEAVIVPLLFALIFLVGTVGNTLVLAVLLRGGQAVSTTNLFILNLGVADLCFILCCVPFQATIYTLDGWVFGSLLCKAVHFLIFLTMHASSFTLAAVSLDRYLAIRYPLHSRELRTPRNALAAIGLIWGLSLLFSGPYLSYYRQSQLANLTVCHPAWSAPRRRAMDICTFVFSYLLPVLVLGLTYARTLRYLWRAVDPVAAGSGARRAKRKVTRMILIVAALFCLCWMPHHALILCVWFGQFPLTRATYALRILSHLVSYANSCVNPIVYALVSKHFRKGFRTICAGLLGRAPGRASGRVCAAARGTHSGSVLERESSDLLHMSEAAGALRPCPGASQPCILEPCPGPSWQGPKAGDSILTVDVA

| SMILES | AC50 [1] | IC50 [2] | EC50 [3] | EC50 [4] | EC50 [5] | IC50 [6] | IC50 [7] | IC50 [8] | AC50 [9] | AC50 [10] | AC50 [11] | AC50 [12] | IC50 [13] | Absolute IC50 (CHOP) [14] [µM] | IC50 [15] |
| --- | --- | --- | --- | --- | --- | --- | --- | --- | --- | --- | --- | --- | --- | --- | --- |
| C1=C(CCNc2[nH]cnc3c4ccccc4nc2-3)CCCC1 | 0.219 µM (active) | > 42 µM (not active) | > 29.9 µM (inactive) | > 29.9 µM (not active) | > 29.9 µM (inactive) | 0.383 µM (active) |  |  |  |  |  |  |  |  |  |
| CS(=O)(=O)c1nc(-c2ccc(F)cc2)cc(C(F)(F)F)n1 |  |  |  |  | > 29.9 µM (inactive) | > 29.9 µM (inactive) | 3.27 µM (active) | 27.4 µM (inactive) | 7.2 µM (active) | 7.39 µM (active) | 24.5 µM (active) | 2.72 µM (active) | 17.7 µM (inactive) | 10 | 2.79 µM (active) |
